From paper PMC7864192 (Cancers, 2021)
pIC50: −log10 of the molar value. Read-outs that look alike come from different tables or passages of the source.

Legend:
[1] = test system: GCPA007 T2.I patient-derived AGCT cell line; experiment: Cell viability drug screen (Cell Titer Glo 2.0, 72 h), mono- and combination therapy, GCPA007T2.I; conditions: Homo sapiens, 72 h, read-out: IC50 in monotherapy
[2] = test system: GCPA096 T1.I patient-derived AGCT cell line; experiment: Cell viability drug screen (Cell Titer Glo 2.0, 72 h), mono- and combination therapy, GCPA096T1.I; conditions: Homo sapiens, read-out: IC50 in monotherapy
Description: (§1) Cell lines were seeded at a density of 500 cells/well in 40 uL in 384-well plates (Corning, NY, USA) with the Multidrop™ cell dispenser (Thermo Fischer Scientific, Waltham, MA, USA) and sealed with Breathe-Easy® membrane (Sigma-Aldrich, St. Louis, MO, USA) to prevent evaporation. […] For each cell line, three biological repeats and two technical repeats each were performed in order to ensure the validity of the drug screens. […] Subsequently, 11 drugs and 12 drug combinations were dispensed and all wells (excluding blanks and non-DMSO control wells) were normalized to 1% DMSO using the HP Tecan D300e Digital Dispenser (Hewlett-Packard, Palo Alto, CA, USA). […] Next, the plates were covered with the Breathe-Easy membrane and incubated. After 72 h, the Multidrop dispensed 15 uL per well of Cell Titer Glo 2.0 (Thermo Fischer Scientific, Waltham, MA, USA) and plates were incubated in the dark for 10 min. After incubation, luminescence excitation was assessed in the Spectramax reader (Molecular Devices, San Jose, CA, USA) (top read, luminescence excitation at 500 nm) and raw data were processed in Microsoft Excel to subtract background luminescence. The Z-factor, a mathematical method used to quantify the quality of a drug screen based on the calculation of the separation band between the values of the positive and negative controls, was utilized to assess the quality of drug screens [54]. Screens with a Z-factor value of >0.5 were used for further analysis.
(§2) Overall cell survival (in %) was plotted against the drug concentration range of each drug (in log10[μM]) using GraphPad Prism 8.3.1. Values that exceeded 100% survival (within +20% biological deviation) were normalized to 100% survival. Similarly, values below 0% cell survival (within −20% biological deviation) were normalized to 0% survival. Values exceeding this deviation were excluded. Dose–response curves were obtained using the model “log(inhibitor) vs. variable slope (normalized response)” to fit the dose–response curves and R^2 values were used to indicate how well the model fit the data (Supplementary Materials Figures S4 and S5). […] The IC50 values were calculated based on the Chou–Talalay method using Compusyn software [55]. For anti-hormonal treatment, mostly provided as maintenance therapy, we used IC10 values in addition to the IC50.
(§3) In addition to the 11 monotherapies, 12 drug combinations were tested (Table 3) simultaneously with the individual drug treatments in the same 384-well plate. […] Synergy was evaluated using the mass action law, a systematic analysis assessing dose–response dynamics in a cost-effective manner [56, 57]. The combination index (CI) was used to indicate antagonistic (CI > 1) additive (CI = 1) and synergistic (CI < 1) effects [55].

[3] = test system: GCPA113 T1.II patient-derived AGCT cell line; experiment: Cell viability drug screen (Cell Titer Glo 2.0, 72 h), mono- and combination therapy, GCPA113T1.II; conditions: for pIC50: Homo sapiens, read-out: IC50 in monotherapy
[4] = test system: GCPA108 T3.IV patient-derived AGCT cell line; experiment: Cell viability drug screen (Cell Titer Glo 2.0, 72 h), mono- and combination therapy, GCPA108T3.IV; conditions: Homo sapiens, read-out: IC50 in monotherapy
Description: (§4) Cell lines were seeded at a density of 500 cells/well in 40 uL in 384-well plates (Corning, NY, USA) with the Multidrop™ cell dispenser (Thermo Fischer Scientific, Waltham, MA, USA) and sealed with Breathe-Easy® membrane (Sigma-Aldrich, St. Louis, MO, USA) to prevent evaporation. The SVOG-3e line was seeded at 1000 cells/well due to contact-dependent growth requirements. For each cell line, three biological repeats and two technical repeats each were performed in order to ensure the validity of the drug screens. […] Subsequently, 11 drugs and 12 drug combinations were dispensed and all wells (excluding blanks and non-DMSO control wells) were normalized to 1% DMSO using the HP Tecan D300e Digital Dispenser (Hewlett-Packard, Palo Alto, CA, USA). All drugs were applied in linear concentration ranges (Table 2), including 16 data points to enable combination drug testing at constant ratios (Table 3). Next, the plates were covered with the Breathe-Easy membrane and incubated. After 72 h, the Multidrop dispensed 15 uL per well of Cell Titer Glo 2.0 (Thermo Fischer Scientific, Waltham, MA, USA) and plates were incubated in the dark for 10 min. After incubation, luminescence excitation was assessed in the Spectramax reader (Molecular Devices, San Jose, CA, USA) (top read, luminescence excitation at 500 nm) and raw data were processed in Microsoft Excel to subtract background luminescence. The Z-factor, a mathematical method used to quantify the quality of a drug screen based on the calculation of the separation band between the values of the positive and negative controls, was utilized to assess the quality of drug screens [54]. Screens with a Z-factor value of >0.5 were used for further analysis.
(§5) Overall cell survival (in %) was plotted against the drug concentration range of each drug (in log10[μM]) using GraphPad Prism 8.3.1. Values that exceeded 100% survival (within +20% biological deviation) were normalized to 100% survival. Similarly, values below 0% cell survival (within −20% biological deviation) were normalized to 0% survival. Values exceeding this deviation were excluded. Dose–response curves were obtained using the model “log(inhibitor) vs. variable slope (normalized response)” to fit the dose–response curves and R^2 values were used to indicate how well the model fit the data (Supplementary Materials Figures S4 and S5). […] The maximum plasma concentration (Cmax) and the plasma concentration at steady state (Css) were used as toxicity thresholds. The Cmax was utilized for drugs in which short, high-dosage time courses are required, while the Css was used for maintenance therapy regimes such as anti-hormonal treatment. […] The IC50 values were calculated based on the Chou–Talalay method using Compusyn software [55]. For anti-hormonal treatment, mostly provided as maintenance therapy, we used IC10 values in addition to the IC50.
as §3

[5] = test system: KGN cells (AGCT cell line); experiment: Cell viability drug screen (Cell Titer Glo 2.0, 72 h), mono- and combination therapy, KGN; conditions: Homo sapiens, read-out: IC50 in monotherapy
[6] = test system: GCPA096 T1.II patient-derived AGCT cell line; experiment: Cell viability drug screen (Cell Titer Glo 2.0, 72 h), mono- and combination therapy, GCPA096T1.II; conditions: Homo sapiens, 72 h, read-out: IC50 in monotherapy
[7] = test system: GCPA096 T1.XVI patient-derived AGCT cell line; experiment: Cell viability drug screen (Cell Titer Glo 2.0, 72 h), mono- and combination therapy, GCPA096T1.XVI; conditions: Homo sapiens, read-out: IC50 in monotherapy
Description: (§6) Cell lines were seeded at a density of 500 cells/well in 40 uL in 384-well plates (Corning, NY, USA) with the Multidrop™ cell dispenser (Thermo Fischer Scientific, Waltham, MA, USA) and sealed with Breathe-Easy® membrane (Sigma-Aldrich, St. Louis, MO, USA) to prevent evaporation. The SVOG-3e line was seeded at 1000 cells/well due to contact-dependent growth requirements. For each cell line, three biological repeats and two technical repeats each were performed in order to ensure the validity of the drug screens. […] Subsequently, 11 drugs and 12 drug combinations were dispensed and all wells (excluding blanks and non-DMSO control wells) were normalized to 1% DMSO using the HP Tecan D300e Digital Dispenser (Hewlett-Packard, Palo Alto, CA, USA). All drugs were applied in linear concentration ranges (Table 2), including 16 data points to enable combination drug testing at constant ratios (Table 3). Next, the plates were covered with the Breathe-Easy membrane and incubated. After 72 h, the Multidrop dispensed 15 uL per well of Cell Titer Glo 2.0 (Thermo Fischer Scientific, Waltham, MA, USA) and plates were incubated in the dark for 10 min. After incubation, luminescence excitation was assessed in the Spectramax reader (Molecular Devices, San Jose, CA, USA) (top read, luminescence excitation at 500 nm) and raw data were processed in Microsoft Excel to subtract background luminescence. […] Screens with a Z-factor value of >0.5 were used for further analysis.
as §5, §3

AGCT cell lines = experiment: Cell viability drug screen (72 h), summary over AGCT cell lines (12 patient-derived, with or without KGN); type: cell-based, human
Description: as §4, §5, §3

[8] = test system: GCPA096 T1.V patient-derived AGCT cell line; experiment: Cell viability drug screen (Cell Titer Glo 2.0, 72 h), mono- and combination therapy, GCPA096T1.V; conditions: Homo sapiens, 72 h, read-out: IC50 in monotherapy
Description: as §6, §5, §3

[9] = test system: GCPA113 T1.I patient-derived AGCT cell line; experiment: Cell viability drug screen (Cell Titer Glo 2.0, 72 h), mono- and combination therapy, GCPA113T1.I; conditions: Homo sapiens, read-out: IC50 in monotherapy
Description: as §1, §2, §3

[10] = test system: GCPA113 T1.III patient-derived AGCT cell line; experiment: Cell viability drug screen (Cell Titer Glo 2.0, 72 h), mono- and combination therapy, GCPA113T1.III; conditions: Homo sapiens, read-out: IC50 in monotherapy
Description: as §1, §2, §3

[11] = test system: GCPA007 T2.IV patient-derived AGCT cell line; experiment: Cell viability drug screen (Cell Titer Glo 2.0, 72 h), mono- and combination therapy, GCPA007T2.IV; conditions: Homo sapiens, read-out: IC50 in monotherapy
Description: as §1, §2, §3

[12] = test system: GCPA096 T1.XV patient-derived AGCT cell line; experiment: Cell viability drug screen (Cell Titer Glo 2.0, 72 h), mono- and combination therapy, GCPA096T1.XV; conditions: Homo sapiens, 72 h, read-out: IC50 in monotherapy
Description: as §4, §5, §3

[13] = test system: GCPA028 T1.II patient-derived AGCT cell line; experiment: Cell viability drug screen (Cell Titer Glo 2.0, 72 h), mono- and combination therapy, GCPA028; conditions: Homo sapiens, 72 h, read-out: IC50 in monotherapy
Description: as §6, §5, §3

CC(=O)O[C@H]1C(=O)[C@@]2(C)[C@H]([C@H](OC(=O)c3ccccc3)[C@]3(O)C[C@H](OC(=O)[C@H](O)[C@@H](NC(=O)c4ccccc4)c4ccccc4)C(C)=C1C3(C)C)[C@]1(OC(C)=O)CO[C@@H]1C[C@@H]2O [Paclitaxel]
pIC50 [1]: < 4.30
pIC50 ([2]; 72 h): < 4.30
pIC50 [2]: < 4.30
pIC50 ([3]; 72 h): 4.32
pIC50 [3]: 4.32
pIC50 ([4]; 72 h): < 4.30
pIC50 [4]: < 4.30
pIC50 ([5]; 72 h): < 4.30
pIC50 [5]: < 4.30
pIC50 [6]: < 4.30
pIC50 ([7]; 72 h): < 4.30
pIC50 [7]: < 4.30
pIC50 (AGCT cell lines; Homo sapiens, median over AGCT cell lines, read-out: median IC50 in monotherapy): 4.03
pIC50 [8]: < 4.30
pIC50 ([9]; 72 h): < 4.30
pIC50 [9]: < 4.30
pIC50 ([10]; 72 h): < 4.30
pIC50 [10]: < 4.30
pIC50 ([11]; 72 h): < 4.30
pIC50 [11]: < 4.30
pIC50 [12]: < 4.30

CC/C(=C(\c1ccccc1)c1ccc(OCCN(C)C)cc1)c1ccccc1 [Tamoxifen]
range IC10 (concentration needed to obtain 10% cell death) (AGCT cell lines; range over AGCT cell lines, monotherapy): 6.04 to 15.03 µM

CC(=O)[C@@]1(O)CC[C@H]2[C@@H]3CCC4=CC(=O)CCC4=C3[C@@H](c3ccc(N(C)C)cc3)C[C@@]21C [Ulipristal]
pIC50 [1]: < 4.30
pIC50 ([2]; 72 h): < 4.30
pIC50 ([3]; 72 h): < 4.30
pIC50 ([4]; 72 h): < 4.30
pIC50 ([5]; 72 h): 4.36
pIC50 [6]: < 4.30
pIC50 ([7]; 72 h): < 4.30
pIC50 [8]: < 4.30
pIC50 ([9]; 72 h): < 4.30
pIC50 [13]: 4.30
pIC50 ([10]; 72 h): < 4.30
pIC50 ([11]; 72 h): < 4.30
pIC50 [12]: < 4.30

C[C@]12CC[C@@H]3c4ccc(O)cc4C[C@@H](CCCCCCCCC[S+]([O-])CCCC(F)(F)C(F)(F)F)[C@H]3[C@@H]1CC[C@@H]2O (some centres unmarked) [Fulvestrant]
pIC50 [1]: < 4.00
pIC50 ([2]; 72 h): < 4.00
IC50 in monotherapy ([3]; GCPA113T1II, monotherapy): Infinit
pIC50 ([5]; 72 h): < 4.00
pIC50 [6]: < 4.00
pIC50 ([7]; 72 h): < 4.00
pIC50 [8]: < 4.00
pIC50 ([9]; 72 h): < 4.00
pIC50 [13]: 4.48
pIC50 ([10]; 72 h): < 4.00
pIC50 ([11]; 72 h): < 4.00
pIC50 [12]: < 4.00
